Data taken from ChEMBL document CHEMBL1201862, “PubChem BioAssay data set” (2004).
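Values below derive from 48-hour exposures of cells grown in 96-well plates, with endpoints linearly interpolated between the two concentrations bracketing the appropriate inhibition level. The concentration for 50% growth inhibition is given as GI50.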 The source made the active and inactive calls. Cut-off read from the data, not from the text of the source: active = GI50 up to about 1.1 µM and inactive = higher.

What was measured:
Assay in all cases: inhibition of tumour cell growth, NCI panel, 48 h
OVCAR-8 = system: OVCAR-8
SK-MEL-5 = system: SK-MEL-5
ACHN = system: ACHN
SK-MEL-28 = system: SK-MEL-28
NCI-H226 = system: NCI-H226
HCC 2998 = system: HCC 2998
M14 = system: M14
A498 = system: A498
MOLT-4 = system: MOLT-4
MCF7 = system: MCF7
OVCAR-5 = system: OVCAR-5
HL-60 = system: HL-60
Malme-3M = system: Malme-3M
UACC-257 = system: UACC-257
LOX IMVI = system: LOX IMVI
OVCAR-3 = system: OVCAR-3
SK-OV-3 = system: SK-OV-3
HCT-15 = system: HCT-15
SF-268 = system: SF-268

Row | Structure (SMILES) | GI50 (OVCAR-8) | GI50 (SK-MEL-5) | GI50 (ACHN) | GI50 (SK-MEL-28) | GI50 (NCI-H226) | GI50 (HCC 2998) | GI50 (M14) | GI50 (A498) | GI50 (MOLT-4) | GI50 (MCF7) | GI50 (OVCAR-5) | GI50 (HL-60) | GI50 (Malme-3M) | GI50 (UACC-257) | GI50 (LOX IMVI) | GI50 (OVCAR-3) | GI50 (SK-OV-3) | GI50 (HCT-15) [µM] | GI50 (SF-268)
1 | O=[N+]([O-])c1nccn1CC1OC(n2ccnc2[N+](=O)[O-])C(O)C(O)C1O (centres undefined) | > 100 µM (inactive) | > 100 µM (inactive) | > 100 µM (inactive) | > 100 µM (inactive) | > 100 µM (inactive) | > 100 µM (inactive) | > 100 µM (inactive) | > 100 µM (inactive) | > 100 µM (inactive) | > 100 µM (inactive) | > 100 µM (inactive) | > 100 µM (inactive) | > 100 µM (inactive) | > 100 µM (inactive) | – | – | – | – | –
2 | CC1OC(n2ccc(=O)[nH]c2=O)C=C(OC(=O)c2ccccc2)C1=O (centres undefined) | 45 µM (inactive) | 56.1 µM (inactive) | 76.7 µM (inactive) | 48.6 µM (inactive) | – | – | 88.9 µM (inactive) | – | > 100 µM (inactive) | – | – | > 100 µM (inactive) | 74.6 µM (inactive) | 86.9 µM (inactive) | 35.7 µM (inactive) | 26.9 µM (inactive) | > 100 µM (inactive) | > 100 | –
3 | CC(=O)OCC1OC(N=[N+]=[N-])C(OC(C)=O)C(OC(C)=O)C1OC1OC(COC(C)=O)C(OC(C)=O)C(OC(C)=O)C1OC(C)=O (centres undefined) | > 100 µM (inactive) | > 100 µM (inactive) | > 100 µM (inactive) | > 100 µM (inactive) | – | > 100 µM (inactive) | > 100 µM (inactive) | > 100 µM (inactive) | > 100 µM (inactive) | – | > 100 µM (inactive) | > 100 µM (inactive) | > 100 µM (inactive) | > 100 µM (inactive) | > 100 µM (inactive) | > 100 µM (inactive) | > 100 µM (inactive) | > 100 | > 100 µM (inactive)
4 | C[Si](C)(C)/C=C/CN1C(=O)CCC1O (centres undefined) | > 100 µM (inactive) | > 100 µM (inactive) | > 100 µM (inactive) | > 100 µM (inactive) | > 100 µM (inactive) | > 100 µM (inactive) | > 100 µM (inactive) | > 100 µM (inactive) | > 100 µM (inactive) | – | > 100 µM (inactive) | > 100 µM (inactive) | > 100 µM (inactive) | > 100 µM (inactive) | > 100 µM (inactive) | > 100 µM (inactive) | > 100 µM (inactive) | > 100 | > 100 µM (inactive)
5 | FC(F)(F)c1cccc2ns[s+]c12 | > 100 µM (inactive) | 69.8 µM (inactive) | > 100 µM (inactive) | > 100 µM (inactive) | > 100 µM (inactive) | > 100 µM (inactive) | > 100 µM (inactive) | > 100 µM (inactive) | > 100 µM (inactive) | – | > 100 µM (inactive) | > 100 µM (inactive) | > 100 µM (inactive) | > 100 µM (inactive) | > 100 µM (inactive) | > 100 µM (inactive) | > 100 µM (inactive) | – | > 100 µM (inactive)
6 | CCOc1nc(OCC)nc(-c2cccn2-c2ccccc2)n1 | 35.5 µM (inactive) | – | 32.2 µM (inactive) | 35.4 µM (inactive) | 32.7 µM (inactive) | 32.3 µM (inactive) | 38.3 µM (inactive) | 47.4 µM (inactive) | 17.7 µM (inactive) | – | 74.1 µM (inactive) | 21.7 µM (inactive) | 21.4 µM (inactive) | 40.5 µM (inactive) | – | 20.7 µM (inactive) | 33 µM (inactive) | 34.6 | 46.5 µM (inactive)
7 | Nn1c(S)nnc1N/N=C1/C(=O)Nc2c(Cl)cc(Cl)cc21 | > 100 µM (inactive) | > 100 µM (inactive) | 76.9 µM (inactive) | – | 52.1 µM (inactive) | 58.2 µM (inactive) | > 100 µM (inactive) | 65.5 µM (inactive) | 37.2 µM (inactive) | – | > 100 µM (inactive) | 69.2 µM (inactive) | > 100 µM (inactive) | > 100 µM (inactive) | 48.5 µM (inactive) | > 100 µM (inactive) | 37.2 µM (inactive) | > 100 | > 100 µM (inactive)
8 | O=C(CC1C(=O)Nc2ccccc2[S+]1[O-])Nc1cc(Cl)ccc1Cl (centres undefined) | > 100 µM (inactive) | > 100 µM (inactive) | > 100 µM (inactive) | > 100 µM (inactive) | > 100 µM (inactive) | > 100 µM (inactive) | > 100 µM (inactive) | > 100 µM (inactive) | > 100 µM (inactive) | – | > 100 µM (inactive) | > 100 µM (inactive) | > 100 µM (inactive) | > 100 µM (inactive) | > 100 µM (inactive) | > 100 µM (inactive) | – | > 100 | > 100 µM (inactive)
9 | CCc1cccc(C(C)CC)c1NC(=O)CC1C(=O)Nc2ccccc2S1(=O)=O (centres undefined) | 4.22 µM (inactive) | 45.9 µM (inactive) | 23.6 µM (inactive) | 53.2 µM (inactive) | – | 6.17 µM (inactive) | 41.4 µM (inactive) | 33.6 µM (inactive) | 11.8 µM (inactive) | – | 70.1 µM (inactive) | – | 36.5 µM (inactive) | 42.3 µM (inactive) | 6.49 µM (inactive) | 13.6 µM (inactive) | 43.2 µM (inactive) | 13.3 | 25.8 µM (inactive)
10 | COc1ccccc1C#C/C=C\C#Cc1ccccc1C#N | 5.35 µM (inactive) | 2.09 µM (inactive) | 13.9 µM (inactive) | 34.2 µM (inactive) | – | 6.19 µM (inactive) | 6.08 µM (inactive) | – | 0.268 µM (active) | 4.61 µM (inactive) | 39.2 µM (inactive) | 4.55 µM (inactive) | 9.98 µM (inactive) | 5.2 µM (inactive) | – | 4.4 µM (inactive) | 39.8 µM (inactive) | 6.93 | 19.4 µM (inactive)
11 | O=C(c1ccncc1)n1nc(-c2ccccc2)c(/N=N/c2ccc([N+](=O)[O-])cc2)c1-c1ccccc1 | 91.2 µM (inactive) | 27.3 µM (inactive) | – | > 100 µM (inactive) | 2.37 µM (inactive) | 71.3 µM (inactive) | 92 µM (inactive) | > 100 µM (inactive) | 48.6 µM (inactive) | – | – | 89.3 µM (inactive) | 90.6 µM (inactive) | 92.3 µM (inactive) | – | 50.9 µM (inactive) | 94.8 µM (inactive) | – | 49.5 µM (inactive)
12 | O=C1CCC(Cl)=CC2CCCN12 (centres undefined) | > 100 µM (inactive) | > 100 µM (inactive) | > 100 µM (inactive) | > 100 µM (inactive) | > 100 µM (inactive) | > 100 µM (inactive) | > 100 µM (inactive) | > 100 µM (inactive) | > 100 µM (inactive) | – | > 100 µM (inactive) | > 100 µM (inactive) | > 100 µM (inactive) | > 100 µM (inactive) | > 100 µM (inactive) | – | > 100 µM (inactive) | > 100 | –
13 | COc1ccc(-c2c(C3=NCCCN3)nnn2-c2ccccc2)cc1 | > 100 µM (inactive) | > 100 µM (inactive) | > 100 µM (inactive) | > 100 µM (inactive) | > 100 µM (inactive) | > 100 µM (inactive) | > 100 µM (inactive) | > 100 µM (inactive) | > 100 µM (inactive) | – | > 100 µM (inactive) | > 100 µM (inactive) | > 100 µM (inactive) | > 100 µM (inactive) | > 100 µM (inactive) | > 100 µM (inactive) | > 100 µM (inactive) | > 100 | > 100 µM (inactive)
14 | C=CCNC(=S)OCCCCCCCCCC | 17.1 µM (inactive) | 16.7 µM (inactive) | 18.5 µM (inactive) | 23.6 µM (inactive) | – | 17.7 µM (inactive) | 18.1 µM (inactive) | 18.5 µM (inactive) | 13.9 µM (inactive) | – | 10.2 µM (inactive) | 16.4 µM (inactive) | 19.6 µM (inactive) | 18.8 µM (inactive) | 13.6 µM (inactive) | – | 24.3 µM (inactive) | 15.8 | 19.5 µM (inactive)
15 | CN1CCc2c1nc(-c1ccccc1)c1c2N(C)CC1 | 57.4 µM (inactive) | 36.1 µM (inactive) | > 100 µM (inactive) | – | – | 99.3 µM (inactive) | 44.8 µM (inactive) | 26.1 µM (inactive) | 38.1 µM (inactive) | – | > 100 µM (inactive) | 31 µM (inactive) | 91.4 µM (inactive) | 93.5 µM (inactive) | 49 µM (inactive) | 21.4 µM (inactive) | > 100 µM (inactive) | 66.4 | > 100 µM (inactive)
16 | Nc1ccc2nc(Nc3ccc(Cl)c(Cl)c3)cnc2c1 | 26.2 µM (inactive) | 37.2 µM (inactive) | 22.2 µM (inactive) | 17.6 µM (inactive) | 15.5 µM (inactive) | 16.1 µM (inactive) | 14.3 µM (inactive) | – | 1.6 µM (inactive) | – | 19.1 µM (inactive) | 8.47 µM (inactive) | 18.5 µM (inactive) | 25.8 µM (inactive) | 14.7 µM (inactive) | 16.9 µM (inactive) | – | 16.6 | 13.9 µM (inactive)
17 | CCOC(=O)c1c(-c2ccc(OC)c(O)c2)c(C#N)c(=S)n(C2OC(CO)C(O)C(O)C2O)c1-c1ccccc1 (centres undefined) | – | > 100 µM (inactive) | > 100 µM (inactive) | > 100 µM (inactive) | > 100 µM (inactive) | > 100 µM (inactive) | > 100 µM (inactive) | > 100 µM (inactive) | > 100 µM (inactive) | – | – | – | – | > 100 µM (inactive) | > 100 µM (inactive) | – | – | > 100 | > 100 µM (inactive)
